# Assays:
# [1] = target: T1, interaction of purified GTP-K-Ras 4B and GDP-RhoA (Homo sapiens, UniProt P61586, G12V); test: In vitro protein-protein interaction assay (GFP-Trap pull-down, Western blotting); assay type: binding; conditions: peptide 50, 250 and 1250 nM, dose-dependent, FLAG-K-Ras 4BG12V pulled down with GFP-RhoA
# T1 construct: made in house; host or cells: Dictyostelium cells
# Protocol: (§1) FIG. 3A is the amino acid sequence of the C-terminal region of K-Ras 4B—the helix α5 is highlighted and K-tetracosapeptide is underlined. Its predicted structure is shown on the right: positively- and negatively-charged surfaces are highlighted. FLAG-tagged GTP-bound K-Ras 4BG12V was incubated with GDP-loaded GFP-RhoA in the presence of K-tetracosapeptide (K-TC) or a scrambled peptide (50, 250, and 1250 nM). GFP-RhoA was pulled down using GFP-Trap beads. The pellets were analyzed by Western blotting using antibodies to FLAG and GFP (FIG. 3B) and quantified by band intensity (FIG. 3C). Bars are mean±SD (n=3). […] S473 AKT phosphorylation was analyzed by Western blotting (FIG. 3E) and band intensity of phospho-AKT relative to total AKT was quantified (FIG. 3F). […] S473 AKT phosphorylation was analyzed by Western blotting. (FIG. 3G) and band intensity was quantified (FIG. 3H). […]
# FLAG-tagged K-Ras4A and K-Ras 4B were eluted from anti-FLAG beads by incubation with 1 M arginine at room temperature for 5 min. Amounts of purified proteins were quantified on CBB-stained SDS-PAGE gels using ImageJ software with BSA as a standard. […] GFP-Trap beads were washed three times in 1 mM MgCl2, 100 mM potassium acetate, 25 mM HEPES (pH 7.4), and bound proteins were analyzed by Western blotting.
# [2] = target: T2, KARATE (mTORC2 mixed with GTP-bound K-Ras 4BG12V and GDP-loaded RhoA) (Homo sapiens, UniProt P61586, G12V); test: In vitro reconstitution of mTORC2-mediated AKT phosphorylation; assay type: biochemical; conditions: S473 AKT phosphorylation by Western blotting; peptide 50, 250 and 1250 nM
# T2 construct: made in house; host or cells: K-Ras 4B G12V and RhoA from Dictyostelium cells; AKT1 purchased (Sigma, 14-279)
# T2 sequence (P61586 whole entry G12V): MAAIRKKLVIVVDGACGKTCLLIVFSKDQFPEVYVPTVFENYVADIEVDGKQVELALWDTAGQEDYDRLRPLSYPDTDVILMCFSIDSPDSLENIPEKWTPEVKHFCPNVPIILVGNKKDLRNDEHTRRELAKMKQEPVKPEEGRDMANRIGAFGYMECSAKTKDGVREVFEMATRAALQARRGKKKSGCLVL
# Protocol: as §1
# In vitro reconstitution of mTORC2-mediated AKT phosphorylation The kinase activity of mTORC1 and mTORC2 was measured as described previously by Huang, Sarbassov dos, and Senoo (Methods Mol Biol 821, 75-86(2012), Methods Mol Biol 821, 59-74(2012), and Nat Cell Biol 21, 867-878(2019), respectively) with some modifications. […] AKT phosphorylation was detected by Western blotting with anti-phospho-AKT (serine 473) antibodies (Cell Signaling, 9271).
# [3] = system: phosphorylation of AKT and TBC1D4 in 3T3-L1 adipocytes; test: Insulin-induced phosphorylation of AKT and TBC1D4 in 3T3-L1 adipocytes; assay type: cell-based, mouse; conditions: differentiated WT 3T3-L1 adipocytes; peptide pre-treatment 5 h, 100 nM insulin 30 min
# Protocol: (§2) Differentiation into adipocytes was induced in WT 3T3-L1 cells and RhoA-KO 3T3-L1 cells expressing the indicated FLAG-RhoA proteins. Differentiation was analyzed Western blotting using anti-adiponectin antibodies (FIG. 6A) and band intensity was quantified (FIG. 6B). Bars are mean f SD (n=3). FIG. 6C is images of WT and RhoA-KO 3T3-L1 cells stained with oil red O before and after induction of the differentiation. FIG. 6D is images RhoA-KO 3T3-L1 cells expressing the indicated RhoA proteins and analyzed by oil red O stain after induction of differentiation. Differentiated WT 3T3-L1 adipocytes were stimulated with insulin after serum starvation in the presence of TAT-K-tetracosapeptide or a TAT peptide. Phosphorylation of AKT and TBC1D4 was analyzed by Western blotting (FIG. 6E) and quantification of band intensity (FIG. 6F). Bars are mean±SD (n=3). […]
# (§3) Insulin-induced AKT phosphorylation and translocation of GLUT4 in 3T3-L1 adipocytes To examine AKT phosphorylation, differentiated WT 3T3-L1 adipocytes were incubated in serum-free DMEM medium for 5 h and stimulated with 100 nM insulin for 30 min. […] After clarification, cell lysates were analyzed by Western blotting using antibodies to AKT (Cell Signaling, 9272) and phospho-AKT (Serine 473) (Cell Signaling, 9271). […]
# [4] = system: transport of GLUT4-GFP to the plasma membrane in 3T3-L1 adipocytes; test: Insulin-induced translocation of GLUT4-GFP in 3T3-L1 adipocytes (confocal microscopy); assay type: cell-based, mouse; conditions: 3T3-L1 adipocytes carrying GLUT4-GFP; insulin 30 min after serum starvation
# Protocol: as §2, §3
# [5] = system: S473 AKT phosphorylation in HEK293 cells; test: Insulin-induced AKT phosphorylation in HEK293 cells; assay type: cell-based, human; conditions: peptide included during serum starvation and insulin stimulation (100 nM, 30 min), dose-dependent
# Protocol: as §1, with “(n=3). FIG. 3D is a schematic of the interaction of K-Ras 4B and RhoA in the presence of K-tetracosapeptide (K-TC) or a scrambled peptide.” for “(n=3).”, “3F). Bars are mean±SD (n=3). After serum starvation, HEK293 cells were stimulated by insulin.” for “3F).”
# Insulin-induced AKT phosphorylation in cells HEK293 cells and differentiated 3T3-L1 adipocytes were washed with serum-free DMEM and incubated with serum-free DMEM for 5 h. […] After clarification, cell lysates were analyzed by Western blotting.
# T1 sequence (P61586 whole entry G12V): as above
Sequence,effect on the interaction of purified GTP-K-Ras 4B and GDP-RhoA [1],effect on AKT phosphorylation in vitro [2],effect on insulin-induced phosphorylation of AKT [3],effect on insulin-induced phosphorylation of TBC1D4 [3],effect on insulin-induced transport of GLUT4-GFP to the plasma membrane [4],effect on insulin-stimulated AKT phosphorylation in cells [5]
"GVDDAFYTLVREIRKHKEKMSKDG [K-tetracosapeptide, peptide of 24 amino acids corresponding to the helix α5 in K-Ras 4B]",greatly decreased,blocked,,,,
"GRKKRRQRRRPQGVDDAFYTLVREIRKHKEKMSKDG [TAT-K-tetracosapeptide, K-tetracosapeptide fused to a cell-permeable TAT peptide]",,,blocked,blocked,strongly inhibited,blocked in a dose-dependent manner
